Test results reported in patent US20110165649A1, “METHODS AND COMPOSITIONS TO IMPROVE THE HEALTH OF PLANTS, ANIMALS AND MICROBES BY MANIPULATING PROTEIN ENTRY INTO SYMBIONTS AND THEIR HOSTS” (priority 2010, published 2011).
“Also recorded” adds a separate entry of the source.

Assays:
P. sojae hyphae = assay: Binding and entry of fluorescent lipid-binding fusion proteins, P. sojae hyphae, confocal microscopy; assay type: cell-based, Phytophthora sojae
Experimental: A, Phosphatidylinositol-4-phosphate (PI-4-P) on the surface of P. sojae membranes mediates selective protein entry. Phosphatidylinositol-4-phosphate adaptor protein-1 (FAPP1)-mCherry, FAPP1-GFP, mCHerry alone or phosphatidylinositol-3-phosphate-binding PH-domain protein-1 (PEPP1)-GFP proteins (1 mg/ml) were incubated together with P. sojae hyphae for 12 hr, then washed extensively. Left panels show fluorescence image; right panels show the matching light micrograph.
To test for the presence of PI-3-P and PI-4-P on P. sojae hyphae, and the ability of those phosphoinositides to carry binding proteins into the hyphae, the pleckstrin-homology (PH) domains of the human proteins phosphatidylinositol-3-phosphate-binding PH-domain protein-1 (PEPP1) and phosphatidylinositol-4-phosphate adaptor protein-1 (FAPP1), respectively, were utilized (Dowler et al., 2000). […] To create biosensors capable of detecting PI-3P and PI-4-P in vivo, the PH domain of PEPP1 was fused to green fluorescent protein (GFP) and the PH domain of FAPP1 was fused to the modified red fluorescent protein, mCherry. (Sequences of the nucleic acids used for the production of these proteins, and the amino acid sequences corresponding to the same, are presented in FIGS. 6 A and B ([…]) and FIGS. 7 A and B (GST-FAPP1-mCherry. PEPP1-GFP and FAPP1-mCherry proteins (1 mg/ml in 25 mM 2-(N-morpholino)ethanesulfonic acid (MES) pH 5.8) were incubated with P. sojae hyphae for 6 hr at 25° C. then washed for 30 min with 25 mM MES pH 5.8, before being photographed using a Zeiss LSM510 laser scanning confocal microscope with an argon laser excitation wavelength of 488 nm for GFP or with a HeNe laser at a wavelength of 543 nm for mCherry.

[1] = system: soybean root suspension culture cells / soybean root tips; assay: Binding and entry of fluorescent lipid-binding fusion proteins, soybean root cells; assay type: cell-based; settings: 1 mg/ml in 25 mM MES pH 5.8, 4° C., suspension culture cells 6 hr or root tips 12 hr
Experimental: B, Detection of PI-3-P but not PI-4-P on the surface of soybean cells. PEPP1-GFP or FAPP1-GFP proteins (1 mg/ml in 25 mM MES pH 5.8) were incubated with soybean root suspension culture cells for 6 hr or with soybean root tips for 12 hr at 4° C. then washed for 2 hr with 25 mM MES pH 5.8, then plasmolyzed with 0.8M Mannitol (suspension culture cells) or 4M NaCl (roots) for 30 minutes, before being photographed. Left panels show fluorescence image; right panels show the matching light micrograph. Plasma membranes are indicated by the white arrow heads.

[2] = system: Human lung adenocarcinoma cells A549; assay: Binding and entry of fluorescent lipid-binding fusion proteins, human lung cells; assay type: cell-based; settings: 1 mg/ml in DPBS
Experimental: C, Detection of PI-3-P but not PI-4-P on the surface of human lung cells PEPP1-mCherry or FAPP1-mCherry proteins [1 mg/ml in Dulbecco's Phosphate Buffer Saline (Ca^+2/Mg^+2 free) (DPBS; Gibco)] were incubated with Human lung adenocarcinoma cells A549 (ATCC CCL-185) for 8 hr at 4° C. or 37° C. then washed twice briefly with DPBS, before being photographed. Left panels show fluorescence image; right panels show the matching light micrograph. […] FIGS. 1B and C were adapted from FIGS. 3 and 5 respectively from Kale et al 2010. External lipid PI-3-P mediates entry of eukaryotic pathogen effectors into plant and animal host cells. Cell 142:284-295.

[3] = 1 mg/ml in 25 mM MES pH 5.8, 6 hr at 25° C., confocal microscopy
[4] = hyphae stained simultaneously with PEPP1-GFP and FAPP1-mCherry

FAPP1-mCherry: PH domain of human FAPP1 (PI-4-P-binding) fused to the modified red fluorescent protein mCherry; SEQ ID NO: 8
binding to the membrane of P. sojae hyphae (P. sojae hyphae; [3]): bound to the membrane of P. sojae hyphae | entry into P. sojae hyphae (P. sojae hyphae; [3]): entered into the cells in abundance; also recorded: entered P. sojae hyphae | cellular entry, P. sojae hyphae (P. sojae hyphae; [4]): cellular entry | membrane binding, P. sojae hyphae (P. sojae hyphae; [4]): strong membrane binding | entry into soybean cells [1]: not | binding to the surface of soybean cells ([1]; plasmolyzed): not | binding to the surface of human A549 cells ([2]; 8 hr at 4° C. (endocytosis inhibited)): not and neither binds to the surface of the cells and does neither | entry into human A549 cells ([2]; 8 hr at 37° C. (endocytosis active)): not and nor enters the cells and does neither
